Where two headings read alike, the source gives them in different places. Values belong to the substance of their own block, whether it stands above or below them.
Tests used:
ACE [1] = test system: ACE; parameters: method as in BIOPEP; details: from casein and soybean hydrolysates; ref BIOPEP; cited from earlier work
[2] = Atomic force microscopy (AFM) of peptide nanostructures; assay type: physicochemical; details: AFM tapping mode, 0.01% w/v in distilled water, sonicated 30 min, on mica
Procedure: AFM measurements were captured in tapping mode using a Tosca system (Anton Paar, Graz, Austria) using single-beam silicon cantilever probes. Peptides were dissolved in distilled water at a final concentration of 0.01% w/v and sonicated for 30 min, the same day as imaging. Then, 5 μL of peptide solution were deposited for 5 min on freshly cleaved mica, and distilled water was used to remove peptides loosely bound to the mica.

ACE [3] = test system: ACE; parameters: method as in PMID 32223157; details: metabolite of Lup1; ref [28]; cited from earlier work
DPP-IV [4] = test system: DPP-IV; parameters: method as in PMID 32223157; details: metabolite of Lup1; ref [28]; cited from earlier work
DPP-IV [5] = details: cited from earlier work; for DPP-IV activity in situ: human Caco-2 cells; for DPP-IV activity in situ / DPP-IV activity in vitro: ref [1]; for IC50: plain solutions, ref [4]
From the text: IAVPTGVA and LTFPGSAED (dubbed, respectively, Soy1 and Lup1) are two peptides derived from the hydrolysis of soybean glycinin and lupin β-conglutin, respectively. […] This difference was explained ...

ACE [6] = details: ACE activity expressed by Caco-2 cells, dose–response; no reference printed in the sentence (sentence before: ref [28]); cited from earlier work
From the text: This difference was explained ...

HMGCoAR = details: in vitro; ref [1],[2],[3],[4]; cited from earlier work
From the text: (§1) IAVPTGVA and LTFPGSAED (dubbed, respectively, Soy1 and Lup1) are two peptides derived from the hydrolysis of soybean glycinin and lupin β-conglutin, respectively.

HepG2 cells = details: human HepG2 cells, ref [3],[5], cited from earlier work; for LDL uptake: LDL from the extracellular environment; for LDLR protein levels: through HMGCoAR inhibition
From the text: as §1

[7] = non-covalently entrapped in RADA16; previously reported by the authors, reference not given; cited from earlier work
DPP-IV and ACE = details: cited from earlier work; for concentration encapsulated needed for positive effect on DPP-IV and ACE: encapsulated in RADA16 hydrogel, previously reported by the authors, reference not given; for capability of inhibiting DPP-IV and ACE: non-covalently entrapped into RADA16, ref [10]
From the text: (§2) However, such food-derived peptides show low stability, bioavailability (due to their rapid degradation by active peptidases located on the intestinal microvilli), and a poor propensity to form functional biomaterials (i.e., hydrogels), thus precluding their practical applications.

proteases = details: cited from earlier work; for bioavailability / resistance towards proteases: non-covalent encapsulation in RADA16 hydrogel vs plain solutions, previously reported by the authors, reference not given; for stability: non-covalently entrapped into RADA16, ref [10]
From the text: as §2

Caco-2 cells = details: cited from earlier work
ACE [8] = test: In vitro evaluation of ACE inhibition activity (HHL substrate); assay type: biochemical, porcine kidney; details: 1 mg/mL; HHL 2.5 mM, pH 8.3, preincubation 15 min 37 °C, incubation 60 min 37 °C, HPLC of hippuric acid
Procedure: (§3) Peptide IAVP (1 mg/mL) was tested as previously described evaluating its DPP-IV and ACE inhibitory activity, respectively. For the evaluation of in vitro ACE inhibitory activity, a biochemical assay was used (further details are reported in supplementary materials).
(§4) Supplementary Materials for Gel‐forming of self‐assembling peptides functionalized with food bioactive motifs modulate DPP‐IV and ACE inhibitory ac‐ tivity in human intestinal Caco‐2 cells
(§5) Raffaele Pugliese1,*, Martina Bartolomei2, Carlotta Bollati2, Giovanna Boschin2, Anna Arnoldi2, and Carmen […]
(§6) In vitro evaluation of ACE inhibition activity. […]
(§7) The evaluation of the inhibition of ACE activity was based on the comparison between the concentrations of HA in the presence or absence of the inhibitor (Inhibitor Blank). The phenomenon of autolysis of HHL to give HA was evaluated by a reaction blank, i.e. a sample with the higher inhibitor concentration but without the enzyme. The percentage of ACE inhibition was calculated considering the area of the HA peak with the following formula: […] where AIB is the area of HA in the Inhibitor Blank (IB) sample (i.e., sample with enzyme but without inhibitor), AN is the area of HA in the samples containing different inhibitor amounts, and ARB is the area of HA in the Reaction Blank (RB) sample (i.e., sample without enzyme and with inhibitor at the highest concentration). […]

DPP-IV [9] = test: In vitro DPP-IV activity assay; assay type: biochemical; details: IAVP up to 1 mg/mL (1, 10, 100, 500 and 1000 μg/mL), Tris-HCl pH 8.0, H-Gly-Pro-AMC, 37°, 30 min, fluorescence 350/465 nm, triplicate
Procedure: as §3, §4, §5, §6, §7

[10] = DPP-IV expressed by Caco-2 cells, read-out: IC50 cellular DPP-IV
[11] = purified enzymes, read-out: IC50 in vitro DPP-IV

Substance: AVP
known ACE inhibitor peptide (ACE [1]): known ACE inhibitor peptides

Substance: Ac-LTFPGSAEDGGGRADARADARADARADA-NH2 [fAP-Lup1, RADA16 functionalized at the N-terminus with Lup1 through a three-glycines spacer]
nanostructure morphology [2]: did not form nanofibers, but instead led to the formation of sparse round aggregates

Substance: Ac-IAVPTGVAGGGRADARADARADARADA-NH2 [fAP-Soy1, RADA16 functionalized at the N-terminus with Soy1 through a three-glycines spacer]
nanostructure morphology [2]: short single nanofibers

Substance: LTFPG [peptide cleaved from Lup1]
ACE inhibitory activity (ACE [3]): maintains its ACE inhibitory activity | DPP-IV inhibitory activity (DPP-IV [4]): losing that against DPP-IV

Substance: LTFPGSAED [Lup1]
DPP-IV activity in situ (DPP-IV [5]): drop the in vitro and in situ human Caco-2 cells DPP-IV activity | DPP-IV activity in vitro (DPP-IV [5]): drop the in vitro and in situ human Caco-2 cells DPP-IV activity | IC50 (DPP-IV [5]; [10]): 208 µM | IC50 (DPP-IV [5]; [11]): 228 µM | IC50 (ACE [6]): 13.7 µM | HMGCoAR inhibition (HMGCoAR): act as in vitro HMGCoAR and DPP-IV inhibitors | LDL uptake (HepG2 cells): improved the ability of hepatic cells to uptake LDL | LDLR protein levels (HepG2 cells): upregulation of the LDLR protein levels | release from RADA16 hydrogel [7]: regularly delivered by the RADA16 hydrogel during the 360 min of controlled release tests | concentration encapsulated needed for positive effect on DPP-IV and ACE (DPP-IV and ACE): more than 100 μM | capability of inhibiting DPP-IV and ACE (DPP-IV and ACE): significantly improved as well as their capability of inhibiting DPP-IV and ACE | bioavailability (proteases): higher bioavailability | resistance towards proteases (proteases): higher resistance towards the proteases | stability (proteases): significantly improved | transport across the intestinal barrier (Caco-2 cells): able to across the intestinal barrier

nanostructure morphology [2]: self-assembles into long nanofibers
Substance: RADA16

Substance: IAVPTGVA [Soy1]
DPP-IV activity in situ (DPP-IV [5]): drop the in vitro and in situ human Caco-2 cells DPP-IV activity | DPP-IV activity in vitro (DPP-IV [5]): drop the in vitro and in situ human Caco-2 cells DPP-IV activity | IC50 (DPP-IV [5]; [10]): 223 µM | IC50 (DPP-IV [5]; [11]): 106 µM | IC50 (ACE [6]): 14.7 µM | HMGCoAR inhibition (HMGCoAR): act as in vitro HMGCoAR and DPP-IV inhibitors | LDL uptake (HepG2 cells): improved the ability of hepatic cells to uptake LDL | LDLR protein levels (HepG2 cells): upregulation of the LDLR protein levels | concentration encapsulated needed for positive effect on DPP-IV and ACE (DPP-IV and ACE): more than 100 μM | capability of inhibiting DPP-IV and ACE (DPP-IV and ACE): significantly improved as well as their capability of inhibiting DPP-IV and ACE | bioavailability (proteases): higher bioavailability | resistance towards proteases (proteases): higher resistance towards the proteases | stability (proteases): significantly improved | transport across the intestinal barrier (Caco-2 cells; Caco-2 trans-epithelial transport, ref [28],[29]): able to across the intestinal barrier | break-down fragments by intestinal peptidases (Caco-2 cells; apical side of Caco-2 cells, trans-epithelial transport, ref [29]): metabolized in three breakdown fragments (AVPTGVA, IAVP, and IAV) | susceptibility to metabolic activity of peptidase (Caco-2 cells; apical side of human intestinal Caco-2 cells, compared with Lup1, ref [28]): more suitable for the metabolic activity of peptidase

Substance: IAVP [small peptide from degradation of Soy1]
reduction of in vitro ACE activity (ACE [8]): 20.1 ± 0.5% | DPP-IV inhibitory activity (DPP-IV [9]): totally ineffective on DPP-IV
